We go through 24 compounds from PMC11424460, “Inhibitory effects of calcium channel blockers nisoldipine and nimodipine on ivacaftor metabolism and their underlying mechanism” (Frontiers in Pharmacology, 2024).

Data set [1] deals with CYP3A. As to conditions: strong CYP3A inhibitor co-administered; FDA report; ref Garg et al., 2019; cited from earlier work.
Data set [2] relates to ivacaftor metabolism in rat liver microsomes (RLM). Briefly: Screening of 79 drugs (100 μM) for inhibition of ivacaftor metabolism in RLM incubation. Type of data set: in vitro ADME. The note with it: each drug 100 μM, 0.3 mg/mL RLM. How it is done: The supernatants were centrifuged at 100,000 × g for 1 h, and the pellets were resuspended with cold […] PBS. Protein concentrations were determined by Bradford Protein Assay Kit (Thermo Scientific, Waltham, MA, United States).
This system was made up of 200 μL of incubation solution consisting of 0.3 mg/mL RLM or 0.4 mg/mL HLM, 1.0 mM NADPH, pH 7.4 PBS and ivacaftor. […] The solution should be pre-incubated at 37°C for 5 min before adding NADPH. Following the addition of NADPH, the mixture should be incubated for 40 min. The reaction should then be stopped at −80°C. After the enzyme reaction was completed, 20 μL of 500 ng/mL IS solution and 400 μL acetonitrile (protein precipitating agent) were added to the mixture. The mixture was vortexed for 2 min and then centrifuged at 13,000 rpm for 10 min. After centrifugation, 100 μL of the supernatant was quantified using UPLC-MS/MS.
Each drug was used at a concentration of 100 μM as the inhibitor. The culture system was 200 μL and included 0.3 mg/mL RLM, 1.0 mM NADPH, PBS, ivacaftor, and inhibitor. The reaction procedure was the same as the enzyme reaction mentioned above Section 2.2.

For data set [3], the target named is ivacaftor metabolism in human liver microsomes (HLM). Briefly: IC50 and inhibition mechanism (Lineweaver-Burk, Ki, αKi) on ivacaftor metabolism in HLM. As to conditions: for Inhibition type: Lineweaver-Burk plots; for IC50: ivacaftor 6.8 μM. Type of data set: in vitro ADME. The protocol:
(§1) This system was made up of 200 μL of incubation solution consisting of 0.3 mg/mL RLM or 0.4 mg/mL HLM, 1.0 mM NADPH, pH 7.4 PBS and ivacaftor. […] In HLM, a range of concentrations (0.1, 1, 2, 4, 12, 25 μM) of ivacaftor was used to determine Km. The solution should be pre-incubated at 37°C for 5 min before adding NADPH. Following the addition of NADPH, the mixture should be incubated for 40 min. The reaction should then be stopped at −80°C. After the enzyme reaction was completed, 20 μL of 500 ng/mL IS solution and 400 μL acetonitrile (protein precipitating agent) were added to the mixture. The mixture was vortexed for 2 min and then centrifuged at 13,000 rpm for 10 min. After centrifugation, 100 μL of the supernatant was quantified using UPLC-MS/MS.
(§2) The IC50 values for the inhibitory effects of nisoldipine and nimodipine on ivacaftor in HLM were also determined. […] The final concentration of DMSO in the culture system is less than 1%. […] The incubation and post-treatment procedures were consistent with the enzyme incubation of ivacaftor described above Section 2.2.
(§3) The incubation and post-treatment procedures were consistent with the enzyme incubation of ivacaftor described above Section 2.2.
(§4) Km values, IC50 values, Lineweaver-Burk plots and mean plasma concentration-time curves were all generated using GraphPad Prism 9.0 software (GraphPad Software, Inc., United States). Pharmacokinetic parameters of ivacaftor and M1 were obtained by analyzing them using the non-compartmental model of Drug and Statistics (DAS) (version 3.0, Mathematical Pharmacology Professional Committee of China, Shanghai, China), and a one-way ANOVA was performed to compare the pharmacokinetics of the three groups of rats using SPSS (version 26.0; SPSS Inc., Chicago, IL, United States). A P-value <0.05 was considered statistically significant. Data were represented as mean ± standard deviation (SD).

Data set [4] deals with ivacaftor metabolism in rat liver microsomes (RLM). Briefly: IC50 and inhibition mechanism (Lineweaver-Burk, Ki, αKi) on ivacaftor metabolism in RLM. Type of data set: in vitro ADME. The note with it: for Inhibition type: Lineweaver-Burk plots; for IC50: ivacaftor 8.8 μM. The protocol: as §1, §2, §3, §4
Details of data set [5]: method as in Harbeson et al., 2017. The note with it: male rats, gavage of 10 mg/kg ivacaftor alone, PEG400 as solvent; ref Harbeson et al., 2017; cited from earlier work.
The subject of data set [6] is rat liver microsomes (RLM). The note with it: read-out: Km (Michaelis-Menten constant); RLM 0.3 mg/mL, 40 min incubation. How it is done:
as §1
as §4, with “Data were represented as mean ± standard deviation (SD).” left out

Data set [7] relates to human liver microsomes (HLM). As to conditions: read-out: Km (Michaelis-Menten constant); HLM 0.4 mg/mL, 40 min incubation. How it is done: as §1
as §4, with “Data were represented as mean ± standard deviation (SD).” left out

A short description of data set [8]: Pharmacokinetics of ivacaftor and M1 in Sprague-Dawley rats with or without nisoldipine or nimodipine. Type of data set: in vivo. As to conditions: male, rat, plasma, po, ivacaftor 10 mg/kg gavage, nisoldipine 1 mg/kg or nimodipine 10 mg/kg 30 min before. The protocol: The animal study was supervised and approved by Ethics Committee of The First Affiliated Hospital of Wenzhou Medical University (WYYY-IACUC-AEC-2023-065). 12 Sprague-Dawley male rats (220 ± 20 g) were purchased from the First Affiliated Hospital of Wenzhou Medical University and randomly divided into three groups: group A (control), group B (nisoldipine), and group C (nimodipine), with 4 rats in each group. A 12 h fast with no restriction on water intake was conducted prior to the experiment. […] Group B were received nisoldipine (1 mg/kg) via gavage, while group C were received nimodipine (10 mg/kg) via the same method. Group A were given the same volume of CMC-Na to serve as a control. […] Before UPLC-MS/MS analysis, supernatant was mixed with 300 μL acetonitrile and 10 μL IS (500 ng/mL), and then vortexed for 2 min and centrifuged at 13,000 rpm for 10 min at 4°C. Finally, a 100 μL sample of supernatant was collected for UPLC-MS/MS analysis. […] SPSS Inc., Chicago, IL, United States). […] Data were represented as mean ± standard deviation (SD).

On the set-up of data set [9]: method as in Schneider et al., 2015. As to conditions: ref Schneider et al., 2015; cited from earlier work.

“Also recorded” adds a separate entry of the source. Like-named read-outs stand apart in the source and are kept apart here.

In general, Ki refers to a measure of affinity in units of concentration, obtained from inhibition or displacement. A word on the IC50: it is the concentration at which inhibition is half-maximal. Read a low IC50 as greater potency. One may read the Km as the substrate concentration at which the rate is half of its maximum. The AUC(0-inf) is total exposure, with the tail of the curve extrapolated. Low values mean less exposure, high ones more exposure. For orientation: AUC(0-t) means the area under the concentration-time curve up to a stated or last time point. A high value points to high exposure. In general, Cmax refers to the highest concentration seen after dosing.

For the compound `CC(=O)N1CCN(c2ccc(OCC3COC(Cn4ccnc4)(c4ccc(Cl)cc4Cl)O3)cc2)CC1` (centres unmarked) [ketoconazole], in [1], the “increase in AUC of ivacaftor when combined with the inhibitor” value was 8.5 fold.
For `CCC(C)n1ncn(-c2ccc(N3CCN(c4ccc(OCC5COC(Cn6cncn6)(c6ccc(Cl)cc6Cl)O5)cc4)CC3)cc2)c1=O` (centres unmarked) [itraconazole], the “increase in AUC of ivacaftor when combined with the inhibitor” value in data set [1] is listed as 15.6 fold.
Regarding `COC(=O)C1=C(C)NC(C)=C(C(=O)OCC(C)C)C1c1ccccc1[N+](=O)[O-]` (centres unmarked) [Nisoldipine], the “Metabolic rate (Mean ± SD, % of control)” value in [2] is recorded as 7.29 ± 4.05 % of control. For the same compound, in data set [3], the Ki came to 3.92 µM; the α amounted to 9.03; the Inhibition type result was “Non-competitive inhibition and competitive inhibition”; the IC50 was 9.1 µM. Moreover, in data set [3] (listed as nisoldipine), the Inhibition type result was “mixed inhibition; also recorded: mixed-type of non-competitive and competitive inhibition”; the IC50 is under 10 µM; the α is 35.40. For the same compound, in [4], the affinity, expressed as Ki, was 3.35 µM; the α was found to be 2.53; the Inhibition type result was “Non-competitive inhibition and competitive inhibition”; half-maximal inhibition (IC50) required 6.55 µM. Besides, in data set [4] (listed as nisoldipine), the Inhibition type result is “mixed inhibition; also recorded: mixed-type of non-competitive and competitive inhibition”; the IC50 was under 10 µM; the α stood at 8.48.
Take `CC(C)(C)c1cc(C(C)(C)C)c(NC(=O)c2c[nH]c3ccccc3c2=O)cc1O` [Ivacaftor, N-(2,4-Di-tert-butyl-5-hydroxyphenyl)-4-oxo-1,4-dihydroquinoline-3-carboxamide]: the “AUC(0–24h) of ivacaftor” value in data set [5] is given as 22,177 ng/mL*h. Moreover, the Km in data set [6] was determined as 8.8 µM. In addition, in data set [7], the Km was 6.8 µM. Besides, in data set [8] (n = 4), the AUC(0-inf) came to 9.36 µg·h/mL, the AUC(0-t) came out at 8.41 µg·h/mL and the Cmax worked out at 0.676 ± 0.242 µg/mL. Further, in data set [8] (n = 4, read-out: CLz/F of ivacaftor (converted)), the CL/F was 1.09 L/h/kg. In data set [8] (n = 4, read-out: t1/2 of ivacaftor (converted)), the half-life is 12.2 ± 4.8 h. Further, in data set [9], the plasma protein binding was over 97%.
As for `CCOC(=O)C1=C(C)NC(C)=C(C(=O)OCC)C1c1ccccc1/C=C/C(=O)OC(C)(C)C` [Lacidipine], the “Metabolic rate (Mean ± SD, % of control)” value in data set [2] is given as 14.13 ± 1.07 % of control. The compound further returned an IC50 in [4] of 2.17 µM.
As to `CCCc1nc2c(C)cc(-c3nc4ccccc4n3C)cc2n1Cc1ccc(-c2ccccc2C(=O)O)cc1` [Telmisartan], in [2], the “Metabolic rate (Mean ± SD, % of control)” value is given as 14.98 ± 1.00 % of control.
On to `COc1ccc(-n2nc(C(N)=O)c3c2C(=O)N(c2ccc(N4CCCCC4=O)cc2)CC3)cc1` [Apixaban], for which the “Metabolic rate (Mean ± SD, % of control)” value in [2] is given as 83.91 ± 3.91 % of control.
On the same count and under the same terms, the figure for `CCCNCC(O)COc1ccccc1C(=O)CCc1ccccc1` (centres unmarked) [Propafenone] is 54.95 ± 0.92 % of control.
On the same count and under the same terms, the figure for `Cc1ccc(Sc2ccccc2N2CCNCC2)c(C)c1` [Vortioxetine] is 3.17 ± 0.50 % of control; for `CN(C)[C@@H](CCOc1cccc2ccccc12)c1ccccc1` [Dapoxetine] it is 19.76 ± 0.64 % of control; for `COc1ccc2cc3[n+](cc2c1OC)CCc1cc2c(cc1-3)OCO2` [Berberine] it is 109.72 ± 0.72 % of control.
Still for that read-out and setting: as for `O=c1c(-c2ccc(O)cc2)coc2cc(O)cc(O)c12` [Genistein], the figure is 50.39 ± 12.01 % of control.
Turning to `COCCOC(=O)C1=C(C)NC(C)=C(C(=O)OC(C)C)C1c1cccc([N+](=O)[O-])c1` (centres unmarked) [Nimodipine], in data set [2], the “Metabolic rate (Mean ± SD, % of control)” value is on record as 7.84 ± 0.43 % of control. For the same compound, the Ki came out at 5.87 µM in data set [3] and 3.26 µM in data set [4]. Besides, the Inhibition type result in [3] and in data set [4] was “Competitive inhibition” throughout. Besides, the IC50 in [3] was 7.15 µM; in [3] (listed as nimodipine) it was under 10 µM; in [4], 4.57 µM; in [4] (listed as nimodipine), under 10 µM.
Regarding `O=c1cc(-c2ccccc2)oc2cc(O)cc(O)c12` [Chrysin], the “Metabolic rate (Mean ± SD, % of control)” value in [2] is on record as 74.50 ± 20.73 % of control.
Same read-out and setting: the figure for `O=C(O[C@@H]1Cc2c(O)cc(O)cc2O[C@@H]1c1cc(O)c(O)c(O)c1)c1cc(O)c(O)c(O)c1` [(-)-Epigallocatechin gallate] is 72.21 ± 13.75 % of control; for `Oc1cc(O)c2c(c1)O[C@H](c1ccc(O)c(O)c1)[C@H](O)C2` [Epicatechin] it is 100.31 ± 2.66 % of control.
For `CCOC(=O)C1=C(C)NC(C)=C(C(=O)OC)C1c1cccc(Cl)c1Cl` (centres unmarked) [Felodipine], the “Metabolic rate (Mean ± SD, % of control)” value in [2] is on record as 13.47 ± 1.71 % of control. For the same compound, in data set [4], the IC50 was found to be 15.6 µM.
On to `COc1ccc([C@@H]2CC(=O)c3c(O)cc(O[C@@H]4O[C@H](CO[C@@H]5O[C@@H](C)[C@H](O)[C@@H](O)[C@H]5O)[C@@H](O)[C@H](O)[C@H]4O)cc3O2)cc1O` [Hesperiden], for which the “Metabolic rate (Mean ± SD, % of control)” value in [2] is listed as 104.17 ± 3.09 % of control.
For `COc1c(O)cc2c(c1O)[C@@H]1O[C@H](CO)[C@@H](O)[C@H](O)[C@H]1OC2=O` [Bergenin], in data set [2], the “Metabolic rate (Mean ± SD, % of control)” value is 142.63 ± 33.46 % of control.
The same measure, in the same setting: the figure for `CC(=O)Oc1cc2c(s1)CCN(C(C(=O)C1CC1)c1ccccc1F)C2` (centres unmarked) [Prasugrel] is 31.93 ± 1.49 % of control; for `CSCCNc1nc(SCCC(F)(F)F)nc2c1ncn2[C@@H]1O[C@H](COP(=O)(O)OP(=O)(O)C(Cl)(Cl)P(=O)(O)O)[C@@H](O)[C@H]1O` [cangrelor] it is 105.13 ± 0.21 % of control.
Still for that read-out and setting: the figure for `CC(C)n1c(=O)cc(N[C@@H](C)c2ccccc2)[nH]c1=O` [mavacamten] is 94.17 ± 0.21 % of control; for `O=c1cc(-c2ccc(O)cc2)oc2cc(O)cc(O)c12` [Apigenin] it is 58.35 ± 2.14 % of control; for `C[N+](C)(C)CC(=O)O` [Betaine] it is 100.10 ± 4.97 % of control.
